These results are taken from US7531669B2, “Methods for treating neural disorders and conditions, and compounds useful therefor” (The Salk Institute for Biological Studies, priority 2003, dated 2009).

Molecules are shown by their SMILES.

Data set [1] can be described thus: Brain content after a single oral dose in mice. It is filed as in vivo, BALB/c mice. The conditions noted are these: for Brain 11-001 content: 400 mg/kg single oral dose. On the procedure: To study the distribution of compound 11-001 in brain at various time intervals (0, 1 hr, 2 hr, 4 hr, and 6 hr) after gavage (400 mg/kg), the mice were anesthetized with cloral hydrate and perfused through the heart with phosphate buffered saline (PBS) to remove blood in the brain. The mice were then decapitated, the brains removed, and quickly frozen and stored at −80° C. before further analysis. To measure the level of compound 11-001 in the brain, weighed brain pieces were homogenized by sonication in 3 volumes of PBS. The homogenates were then extracted and measured by HPLC as described above.

The test system of data set [2] is HT22 cells. Briefly: HT22 cell survival after glutamate in the CREB phosphorylation experiment. It is filed as cell-based. The conditions noted are these: 1 μM compound; all cells died in its absence. Here is the method: CREB phosphorylation in response to oxidative stress was evaluated in the presence of invention compounds. Glutamate was added to HT22 cells in the presence or absence of compound 11-001 (at 1 μM). […] Furthermore, all of the HT22 cells died in the absence of compound 11-001, and over 90% lived in the presence of compound 11-001.

For data set [3], the target named is JNK-1 (Homo sapiens, UniProt P45983). Briefly: Protein kinase panel screen: JNK-1. It is filed as biochemical. An excerpt: (§1) A panel of 14 protein kinases was screened against compound 11-001. […] The phosphorylation of the other tested kinases was not altered.
JNK-1, sequence (P45983 whole entry, species assumed): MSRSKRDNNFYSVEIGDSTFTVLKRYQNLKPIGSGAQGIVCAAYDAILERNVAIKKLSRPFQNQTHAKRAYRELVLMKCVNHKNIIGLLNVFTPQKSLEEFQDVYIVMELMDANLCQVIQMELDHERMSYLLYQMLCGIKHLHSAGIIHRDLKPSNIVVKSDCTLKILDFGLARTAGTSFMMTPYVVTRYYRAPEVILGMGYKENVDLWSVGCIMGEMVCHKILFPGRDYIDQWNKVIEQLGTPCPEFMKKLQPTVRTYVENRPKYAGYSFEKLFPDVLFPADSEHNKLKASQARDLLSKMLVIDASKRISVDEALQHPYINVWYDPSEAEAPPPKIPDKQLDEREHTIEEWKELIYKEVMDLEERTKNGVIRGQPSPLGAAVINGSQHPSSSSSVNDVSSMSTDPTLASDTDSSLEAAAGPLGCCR
Data set [4] is described as follows: Plasma concentration after a single oral dose in mice. Format: in vivo, BALB/c mice. The conditions noted are these: for Plasma 11-001 concentration: 400 mg/kg single oral dose. Here is the method: The pharmacokinetic properties of compound 11-001 (see FIG. 14) after a single oral dose were studied in 10-week old female BALB/c mice. Compound 11-001 was emulsified in 2.5% carboxymethyl cellulose at a concentration of 20 mg/ml and administered by gavage at a dosage of 400 mg/kg body weight (administered volume was 20 ml/kg body weight). The mice were then sacrificed at various intervals after administration (0, 1 hr, 2 hr, 4 hr, and 6 hr). Plasma was obtained from blood (mixed with K3EDTA to prevent coagulation) by centrifugation at 4,300 g for 10 min, extracted twice with ethyl acetate/propanol (9:1, v/v). The extracts were centrifuged at 5,000 g for 10 min to form aqueous/organic layers. The organic layer containing compound 11-001 was centrifuged at 20,000 g for 10 min to sediment particles. The extraction recovery from plasma was approximately 90%. Thirty μl thereof were analyzed by HPLC equipped with a C18 reversed phase column and compound 11-001 was detected at 330 nm. The elution solvent system was 50% acetonitrile, 50% water and 1 g/L trifluoroacetic acid with a flow rate of 1 ml/min.

In data set [5] the test system is HT22 cells and primary cortical neurons. Briefly: Cell death caused by glutamate in HT22 cells and primary cortical neurons. It is filed as cell-based.
Data set [6] concerns the target JNK-3 (Homo sapiens, UniProt P53779). Put plainly: Protein kinase panel screen: JNK-3. Format: biochemical.
Description: as §1

Data set [7] deals with JNK. Briefly: JNK phosphorylation caused by glutamate in cells. It is filed as cell-based. The conditions noted are these: HT22 cells and primary cortical neurons.
Description: as §1

In data set [8] the target is JNK-2 (Homo sapiens, UniProt P45984). Briefly: Protein kinase panel screen: JNK-2. Format: biochemical.
JNK-2, sequence (P45984 whole entry, species assumed): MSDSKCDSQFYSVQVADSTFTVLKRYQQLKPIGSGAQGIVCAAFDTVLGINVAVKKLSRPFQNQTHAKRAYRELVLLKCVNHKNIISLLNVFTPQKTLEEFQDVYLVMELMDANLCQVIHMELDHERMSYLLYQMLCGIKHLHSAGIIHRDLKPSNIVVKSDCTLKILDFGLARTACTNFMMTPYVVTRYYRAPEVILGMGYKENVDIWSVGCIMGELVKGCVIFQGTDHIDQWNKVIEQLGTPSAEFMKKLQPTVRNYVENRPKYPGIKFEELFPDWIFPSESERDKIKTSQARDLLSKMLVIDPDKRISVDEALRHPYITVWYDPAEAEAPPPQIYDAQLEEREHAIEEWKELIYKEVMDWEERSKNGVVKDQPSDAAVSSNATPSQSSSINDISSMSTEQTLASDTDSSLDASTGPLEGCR
Description: as §1

Data set [9] deals with p38. Put plainly: p38 phosphorylation caused by glutamate in cells. Format: cell-based. The following applies: HT22 cells and primary cortical neurons.
Description: as §1

In data set [10] the test system is rat primary cortical neurons. Put plainly: Neuroprotective activity, rat primary cortical neurons cultured in serum-containing or serum-free medium. Format: cell-based. On the procedure:
Primary cortical neurons are prepared from 18-day-old embryos of Sprague-Dawley rats as described (Liu and Schubert J. Neurochem. 69, 2285-2293 (1997) and J. Neurochem. 71, 2322-2329 (1998)). Briefly, the cerebral cortex is dissected out under an anatomical microscope and is freed of meninges and blood vessels. The cortex is cut into small pieces and is then dissociated by trypsin digestion and passed through a pipette tip. Dissociated neurons are suspended in various media and plated on polylysine-coated 35 mm tissue culture dishes (1×10^6 cells/dish). Several different culture conditions were used. Invention compounds were added to cell culture dishes. Cell survival was measure 2-7 days after compound administration.
The following serum-containing medium was used: minimal essential medium (Sigma) containing 30 mM glucose, 2 mM glutamine, 1 mM pyruvate, penicillin (100 U/ml), streptomycin (100 μg/ml), and 10% fetal calf serum. At a plating density of 1×10^6 cells/dish, most neurons die after one week of culture in this medium. If plated at a density of 2×10^6 cells/dish, then most neurons survive. Glia proliferate in this medium regardless of the initial cell density. Therefore the cell density-dependent neuronal survival in this system is most likely dependent on the neurotrophic factors secreted by the neurons, not by the glia. The results are the same when glial proliferation is inhibited by cytosine arabinoside.
A serum-free medium containing DMEM/F-12 plus N2 supplements (Invitrogen). When plated at a density of 1×10^6 cells/dish, almost all neurons die within three days. The cell death mechanisms in this culture medium are most likely to be oxidative stress and trophic factor deficiency.
A number of compounds according to the present invention were synthesized (using standard synthetic techniques) to explore the structure-activity relationships. The structures of exemplary invention compounds tested are provided herein. The structure-activity relationships of various compounds according to the present invention with rat primary cortical neurons cultured in serum-containing or serum-free medium are set forth in Table 1.

JNK-3, sequence (P53779 whole entry, species assumed): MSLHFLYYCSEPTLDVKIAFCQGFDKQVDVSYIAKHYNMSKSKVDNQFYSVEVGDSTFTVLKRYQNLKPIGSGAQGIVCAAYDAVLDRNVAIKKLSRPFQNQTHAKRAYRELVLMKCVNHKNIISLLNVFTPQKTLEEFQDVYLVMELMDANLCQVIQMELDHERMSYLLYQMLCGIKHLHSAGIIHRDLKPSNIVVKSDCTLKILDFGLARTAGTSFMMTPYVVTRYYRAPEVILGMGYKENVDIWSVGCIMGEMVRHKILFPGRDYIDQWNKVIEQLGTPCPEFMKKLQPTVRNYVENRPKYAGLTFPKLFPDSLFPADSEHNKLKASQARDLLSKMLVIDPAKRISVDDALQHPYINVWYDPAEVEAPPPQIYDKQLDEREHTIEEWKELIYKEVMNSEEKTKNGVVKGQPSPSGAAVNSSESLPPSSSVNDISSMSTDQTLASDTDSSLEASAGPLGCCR

With `COc1cc(/C=C/c2cc(/C=C/c3ccc(O)c(OC)c3)n(-c3ccccc3)n2)ccc1O` [Compound 11-001], the “Brain 11-001 content” value in data set [1] (0 hr after gavage) is listed as 0 μg/g brain; in data set [1] (1 hr after gavage) it was 2.62 μg/g brain; in [1] (2 hr after gavage), 1.28 μg/g brain; in [1] (4 hr after gavage) it was 0.89 μg/g brain; in data set [1] (6 hr after gavage), 0.95 μg/g brain. The “Time of maximum brain concentration” value in data set [1] (400 mg/kg by gavage) amounted to 1 h. In addition, the “Oral absorption and passage of the blood-brain barrier” value in data set [1] (400 mg/kg by gavage, mice) is “can be orally absorbed and traverse the blood-brain barrier”. For the same molecule, the “HT22 cells that lived after glutamate” value in data set [2] was “over 90%”. The “Inhibition of kinase in panel of 14 protein kinases” value in [3] is listed as “None of the other enzymes that were assayed, including JNK-1 or JNK-2, were affected”; in data set [6] it was “partially inhibited”; in data set [8] it was “None of the other enzymes that were assayed, including JNK-1 or JNK-2, were affected”. For the same molecule, the “Plasma 11-001 concentration” value in data set [4] (0 hr after gavage) turned out to be 0 µg/mL; in data set [4] (1 hr after gavage), 1.84 µg/mL; in [4] (2 hr after gavage) it was 2.30 µg/mL; in data set [4] (4 hr after gavage), 1.25 µg/mL; in data set [4] (6 hr after gavage), 0.67 µg/mL. Further, in [4] (400 mg/kg by gavage), the “Time of maximum plasma concentration” value is listed as “around 2 hr”. Moreover, the “Effect on cell death” value in data set [5] is “inhibited cell death”. The “Block of JNK phosphorylation caused by glutamate” value in data set [7] is listed as “about 30%”. For the same molecule, in data set [9], the “Block of p38 phosphorylation caused by glutamate” value is given as “about 30%”.
In the case of `C(=C\c1cc(/C=C/c2ccccc2)n(-c2ccccc2)n1)/c1ccccc1` [Compound 22-020], the “Neuroprotective activity at 1 μM” value in data set [10] is 0.
Same read-out and setting: the result for `COc1ccc(/C=C/c2cc(/C=C/c3ccc(OC)cc3)n(-c3ccccc3)n2)cc1` [Compound 22-022] reads 0.
Same read-out and setting: the result for `COc1cccc(/C=C/c2cc(/C=C/c3cccc(OC)c3)n(-c3ccccc3)n2)c1` [Compound 22-024] reads 0; that for `COc1ccc(/C=C/c2cc(/C=C/c3ccc(OC)c(OC)c3)n(-c3ccccc3)n2)cc1OC` [Compound 22-026], 0.
